The NIST ThermoML archive (doi:10.1021/je8009336)
Numbers after ± are expanded uncertainties.

Key:
[1] = refractive index (Na D-line) (dimensionless); conditions: 101.33 kPa, Liquid, Standard Abbe refractometry
[2] = Liquid; for mass density: Vibrating tube method; for speed of sound: Vibrating Tube Densimeter
[3] = refractive index (Na D-line) (dimensionless); xn = mol fraction of the nth substance listed; conditions: 313.15 K, 101 kPa, Liquid, Standard Abbe refractometry
[4] = xn = mol fraction of the nth substance listed; conditions: 313.15 K, 101 kPa, Liquid; for speed of sound: Vibrating Tube Densimeter; for mass density: Vibrating tube method

c1ccccc1 [benzene]
[1]
Conditions	refractive index
298.15 K	1.49775 ± 0.00068
313.15 K	1.48777 ± 0.00068

[2]
Conditions	mass density, 298.15 K [kg/m3]	mass density, 313.15 K [kg/m3]	speed of sound, 313.15 K [m/s]
101 kPa	–	857.5 ± 0.2	1230.5 ± 2.1
101.33 kPa	873.5 ± 0.2	–	–

C1CCCCC1 [cyclohexane]
[1]
Conditions	refractive index
298.15 K	1.42353 ± 0.00068
313.15 K	1.41513 ± 0.00068

[2]
Conditions	mass density, 298.15 K [kg/m3]	mass density, 313.15 K [kg/m3]	speed of sound, 313.15 K [m/s]
101 kPa	–	759.6 ± 0.2	1181.7 ± 2.1
101.33 kPa	773.8 ± 0.2	–	–

C1CCCC1 [cyclopentane]
[1]
Conditions	refractive index
298.15 K	1.40342 ± 0.0007
313.15 K	1.39456 ± 0.0007

[2]
Conditions	mass density, 298.15 K [kg/m3]	mass density, 313.15 K [kg/m3]	speed of sound, 313.15 K [m/s]
101 kPa	–	725 ± 0.3	1130 ± 2.3
101.33 kPa	740 ± 0.3	–	–

CCc1ccccc1 [ethylbenzene]
[1]
Conditions	refractive index
298.15 K	1.49304 ± 0.00068
313.15 K	1.48538 ± 0.00068

[2]
Conditions	mass density, 298.15 K [kg/m3]	mass density, 313.15 K [kg/m3]	speed of sound, 313.15 K [m/s]
101 kPa	–	849.3 ± 0.2	1257.3 ± 2.1
101.33 kPa	862.5 ± 0.2	–	–

CC1CCCCC1 [methylcyclohexane]
[1]
Conditions	refractive index
298.15 K	1.42053 ± 0.0007
313.15 K	1.41272 ± 0.0007

[2]
Conditions	mass density, 298.15 K [kg/m3]	mass density, 313.15 K [kg/m3]	speed of sound, 313.15 K [m/s]
101 kPa	–	752 ± 0.3	1149.6 ± 2.3
101.33 kPa	764.9 ± 0.3	–	–

CC1CCCCC1 [methylcyclohexane] + c1ccccc1
Conditions	mass density, [4] [kg/m3]	refractive index, [3]	speed of sound, [4] [m/s]
x1 = 0.0486	849.3 ± 0.3	1.48201 ± 0.00068	1220.3 ± 2.1
x1 = 0.0982	841.3 ± 0.2	1.47621 ± 0.00068	1211.2 ± 2.1
x1 = 0.1995	826.7 ± 0.3	1.46566 ± 0.00068	1195.3 ± 2.1
x1 = 0.2999	813.5 ± 0.3	1.45619 ± 0.00068	1182.5 ± 2.1
x1 = 0.4038	801.3 ± 0.3	1.44745 ± 0.00068	1172 ± 2.1
x1 = 0.4998	791.3 ± 0.3	1.44043 ± 0.00069	1164.6 ± 2.1
x1 = 0.612	780.7 ± 0.3	1.43297 ± 0.00069	1158.1 ± 2.2
x1 = 0.7053	772.6 ± 0.3	1.42729 ± 0.00069	1154.2 ± 2.2
x1 = 0.7994	765.3 ± 0.3	1.42214 ± 0.0007	1151.5 ± 2.2
x1 = 0.8991	758.4 ± 0.3	1.41728 ± 0.0007	1149.9 ± 2.3
x1 = 0.953	754.8 ± 0.3	1.4148 ± 0.0007	1149.5 ± 2.3
x1 = 1	752 ± 0.3	1.41272 ± 0.0007	1149.6 ± 2.3

Cc1ccccc1 [toluene]
[1]
Conditions	refractive index
298.15 K	1.49399 ± 0.00068
313.15 K	1.48509 ± 0.00068

[2]
Conditions	mass density, 298.15 K [kg/m3]	mass density, 313.15 K [kg/m3]	speed of sound, 313.15 K [m/s]
101 kPa	–	848.2 ± 0.2	1240.9 ± 2.1
101.33 kPa	862.1 ± 0.2	–	–

Cc1ccccc1 [toluene] + C1CCCC1
x2 = 0
Conditions	mass density [kg/m3]	refractive index	speed of sound [m/s]
[3]	–	1.48509 ± 0.00068	–
[4]	848.2 ± 0.2	–	1240.9 ± 2.1

Cc1ccccc1 [toluene] + C1CCCCC1
x2 = 0
Conditions	mass density [kg/m3]	refractive index	speed of sound [m/s]
[3]	–	1.48509 ± 0.00068	–
[4]	848.2 ± 0.2	–	1240.9 ± 2.1

Cc1ccccc1 [toluene] + CC1CCCCC1
x2 = 0
Conditions	mass density [kg/m3]	refractive index	speed of sound [m/s]
[3]	–	1.48509 ± 0.00068	–
[4]	848.2 ± 0.2	–	1240.9 ± 2.1
